These are literature values, as cited in patent publication US20230399688A1, “COMPOSITIONS AND M[…] FOR COUPLED CELL-FREE TRANSCRIPTION-T[…] PROTEIN SYNTHESIS AND METHODS FOR USING THEM” (GENOMATICA, INC., priority 2015, published 2023).

The test system of the data set is human cancer cell lines. As to conditions: in comparison to the parent drug, MTM.

In the case of `CO[C@@H]([C@@H]1Cc2cc3cc(O[C@H]4C[C@@H](O[C@H]5C[C@@H](O)[C@H](O)[C@@H](C)O5)[C@H](O)[C@@H](C)O4)c(C)c(O)c3c(O)c2C(=O)[C@H]1O[C@H]1C[C@@H](O[C@H]2C[C@@H](O[C@H]3C[C@](C)(O)[C@H](O)[C@@H](C)O3)[C@@H](O)[C@@H](C)O2)[C@H](O)[C@@H](C)O1)[C@@H](O)C(C)=O` [MTM-SK, mithramycin SK], the therapeutic index result is given as “improved therapeutic index”.
